# Measurements taken from PubChem BioAssay AID652213 (The Scripps Research Institute Molecular Screening Center, 2013).
# Activity calls are given as the source filed them. The rule behind the calls is not given here.
# Target: Serine/threonine-protein phosphatase PP1-alpha catalytic subunit (Homo sapiens) (UniProt P62136)
# Assay: PP1 inhibitors, OMFP dephosphorylation, late-stage follow-up, biochemical, fluorescence, OMFP substrate, set 3 (AID 652213)
# Settings: purified PP1, OMFP dephosphorylation, at 6.7 µM (top of the series)
# Serine/threonine-protein phosphatase PP1-alpha catalytic subunit (Homo sapiens), sequence (P62136 whole entry, looked up): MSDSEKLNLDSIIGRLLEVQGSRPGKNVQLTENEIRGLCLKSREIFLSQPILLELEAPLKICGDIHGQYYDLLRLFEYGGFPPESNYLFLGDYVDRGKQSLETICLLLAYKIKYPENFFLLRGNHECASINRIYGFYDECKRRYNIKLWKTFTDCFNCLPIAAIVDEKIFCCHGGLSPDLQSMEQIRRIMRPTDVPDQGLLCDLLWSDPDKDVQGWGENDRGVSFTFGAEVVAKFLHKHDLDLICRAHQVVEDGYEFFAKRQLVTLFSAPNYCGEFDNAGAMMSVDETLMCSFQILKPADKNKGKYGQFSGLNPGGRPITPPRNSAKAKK
row,SMILES,activity
1,Cc1cc(C)c(S(=O)(=O)/N=C2\C=C(Sc3ncn[nH]3)C(=O)c3ccccc32)cc1C,5.84% (inactive)
2,O=C(O)c1cc(-c2ccc(Cl)cc2)n(-c2cccc(Cl)c2)n1,55.6%
3,CCCCN(CC)c1nc(N)c2c(N)nc(OCC)cc2c1C#N,4.31% (inactive)
4,O=C(O)C1C2CCC(O2)C1C(=O)NC1CCCCC1 (centres undefined),26.2% (inactive)
5,O=C(Nc1nc(-c2ccccn2)cs1)C1CC(=O)N(c2ccc3c(c2)OCCO3)C1 (centres undefined),42.3%
6,COc1ccc(CN2C(=O)Cc3c2nc(N)c2c(N)nc(N4CCCCC4)c(C#N)c32)cc1,-0.66% (inactive)
7,CCn1c2ccccc2c2cc(NC(=O)COC(=O)c3ccc(NC(=O)CC#N)cc3)ccc21,49%
8,O=C(O)c1cc(-c2ccc(Cl)c(Cl)c2)n(-c2ccccc2)n1,59.9%
9,CC(C)(CS(=O)(=O)[O-])NC(=O)CC[N+](C)(C)CCO,49.7%
10,COc1cnc(-c2ccccn2)nc1Oc1cccc(Cl)c1,46.4%
11,COc1ccc(OCCCC(=O)Nc2nc(-c3ccccn3)cs2)cc1,26.8%
12,CCOC(=O)c1cnc(-n2nc(C)cc2C)nc1NCc1ccccc1,62.5%
13,Nc1nc(-c2ccccn2)nc(N)c1Cc1ccc(Cl)cc1Cl,67.1%
14,CCOC(=O)c1nn(-c2ccc(C)cc2)c(=O)c2c(N)scc12,4.75% (inactive)
15,O=C1Nc2ccccc2N2CCCC12 (centres undefined),-7.49% (inactive)
16,COc1ccccc1Sc1nc(-c2ccccn2)ncc1OC,63.1%
17,COc1ccc(Cl)cc1C(=O)Nc1cccc(-c2ccc3nncn3n2)c1,56.6%
18,O=S(=O)(Cc1cc(NCc2ccccc2)nc(-c2ccccn2)n1)c1ccccc1,50%
19,Cc1ccc(C(=O)NC2(O)C(=O)c3ccccc3C2=O)cc1C,1.19% (inactive)
20,CCCN(CC1CC1)c1nc(N)c2c(N)nc(OC)cc2c1C#N,0.2% (inactive)
21,COc1cnc(-c2ccccn2)nc1Sc1ccc(C)cc1,62.9%
22,Cc1ccc(-n2nc(C(=O)O)cc2-c2ccc(Cl)cc2)cc1,54.8%

row,SMILES,activity
1,COc1cnc(-c2ccccn2)nc1Sc1ccc(Cl)cc1,54.6%
2,c1ccc(Nc2nc(-c3ccccn3)cs2)cc1,62%
3,COc1ccc(NC(=S)Nc2ccc3nsnc3c2)cc1,-1.36% (inactive)
4,COc1cnc(-c2ccccn2)nc1Oc1cccc(C(F)(F)F)c1,-4.64% (inactive)
5,Oc1ccc(/C=N/Nc2cc(N3CCOCC3)nc(N3CCOCC3)n2)c(O)c1,7.02% (inactive)
6,c1ccc(-c2nccc(-c3ccc(-n4cnc5ccccc54)cc3)n2)nc1,62.4%
7,COc1cnc(-c2ccccn2)nc1Sc1cccc(Cl)c1,64.1%
8,O=C(O)c1cc(-c2ccc(Cl)c(Cl)c2)n(-c2ccc(F)cc2)n1,57.7%
9,CN1CCN(C(c2ccccn2)c2cc(Cl)c3cccnc3c2O)CC1 (centres undefined),69.7%
10,CCOC(=O)c1sc(N2C(=O)C(O)=C(C(=O)c3ccco3)C2c2cccc([N+](=O)[O-])c2)nc1C (centres undefined),26.6%
11,COc1cnc(-c2ccccn2)nc1Sc1ccc(F)cc1,53.8%
12,Cc1[nH]n(-c2ccccc2)c(=O)c1C(c1ccc([N+](=O)[O-])cc1)c1c(C)[nH]n(-c2ccccc2)c1=O,-6.69% (inactive)
13,CCOC(=O)C1=C(C)OC2(O)c3ccccc3C(=O)C12O (centres undefined),27.1% (inactive)
14,COc1ccc(Sc2nc(-c3ccccn3)ncc2OC)cc1,72.4%
15,Clc1ccc(-n2nnnc2-c2cnc(-c3ccccn3)nc2-c2cccs2)cc1,66.6%
16,N#Cc1c(N2CCCC(O)C2)nc(N)c2c(N)nc3c(c12)CC(=O)N3C12CC3CC(CC(C3)C1)C2 (centres undefined),5.14% (inactive)
17,N#Cc1c(-c2ccc(Cl)cc2)cc(-c2cccs2)nc1SCC(=O)O,45.4%
18,O=c1[nH]c(Nc2ccccc2)cc2ccccc12,4.07% (inactive)
19,Oc1ccccc1/C=N/Nc1cc(N2CCCC2)nc(N2CCCC2)n1,4.03% (inactive)
20,Nc1cc2nsnc2cc1Br,-10.1% (inactive)
21,CCOc1ccc(NC(=S)Nc2ccc3nsnc3c2)cc1,2.39% (inactive)
22,Cc1ccc(C(=O)NNc2cc(N3CCCC3)nc(N3CCCC3)n2)cc1,4.62% (inactive)

row,SMILES,activity
1,O=C(NC1(O)C(=O)c2ccccc2C1=O)c1ccccc1,-6.67% (inactive)
2,COc1cc(Br)c(C(=O)c2nccc3cc(OC)c(OC)cc23)cc1OC,-11.4% (inactive)
3,CCOC(=O)c1cnc(-n2nc(C)cc2C)nc1NC1CCCCC1,59.7%
4,COc1ccc2c(Cl)c(C(=O)N/N=C/c3ccc4c(c3)OCO4)sc2c1,20.2% (inactive)
5,CCOC(=O)c1sc2nc3c(SCC(=O)O)cc(C(=O)c4cc(F)ccc4O)cn3c(=O)c2c1C,65.9%
6,O=C(NC1(O)C(=O)c2ccccc2C1=O)c1ccc(C(F)(F)F)cc1,8.58% (inactive)
7,Oc1cccc(/C=N/Nc2cc(N3CCCC3)nc(N3CCCC3)n2)c1,18.5% (inactive)
8,COc1ccc(Cn2c(N)c(C(=O)NCc3ccco3)c3nc4ccccc4nc32)cc1OC,3.93% (inactive)
9,CCOC(=O)c1cnc(-n2nc(C)cc2C)nc1NC(C)c1ccccc1 (centres undefined),69.4%
10,CC(=O)C(C(C)=O)C1(O)C(=O)c2ccccc2C1=O,1.17% (inactive)
11,COc1cnc(-c2ccccn2)nc1Sc1ccccc1,64.9%
12,O=C(NC1(O)C(=O)c2ccccc2C1=O)c1c(Cl)cccc1Cl,-3.06% (inactive)
13,CCCCn1c(NC(=O)c2ccco2)c(C(=O)OCC)c2nc3ccccc3nc21,-8.57% (inactive)
14,COc1ccc(C(=O)c2nccc3cc(OC)c(OC)cc23)cc1OC,5.53% (inactive)
15,COc1cnc(-c2ccccn2)nc1Sc1ccccc1Cl,68.7%
16,CCOC(=O)c1cnc(-n2cc(C)cn2)nc1NCc1ccc2c(c1)OCO2,16.5% (inactive)
17,Cc1nnc(NC(=O)C2C3C=CC(O3)C2C(=O)O)s1 (centres undefined),2.61% (inactive)
18,COc1ccc(NC(=O)C2C3CCC(O3)C2C(=O)O)c(OC)c1 (centres undefined),35.3%
19,CCOC(=O)c1cnc(-n2nc(C)cc2C)nc1NCCc1ccccc1,68.3%
20,O=C1CCCC2=C1C1(O)C(=O)c3ccccc3C1(O)O2 (centres undefined),3.07% (inactive)
